This is an account of results in US11708348B2, “Protease inhibitors for treatment of coronavirus infections” (The Scripps Research Institute, priority 2021, dated 2023).

As usually defined, the EC50 is the concentration at which the effect is half-maximal.

SMILES strings stand for the structures. Bounds are passed on as bounds.

In the first assay the test system is SARS-CoV-2 strain USA-WA1/2020. The experiment in a line: microbe, parasite or virus in culture. Type of assay: cell-based. The settings on record: Severe acute respiratory syndrome coronavirus 2, HeLa-ACE2, 24 h, HeLa-ACE2 cells, SARS-CoV-2 infection, 24 h; given as bound; read-out: EC50, uM (Hela).
`CC1(NC(=O)C(=O)N2C[C@@H]3CCC[C@@H]3[C@H]2C(=O)N[C@H](C[C@@H]2CCNC2=O)C(=O)COC(F)(F)F)CC1` [Compound 495, (1S,3aR,6aS)-2-(2-((1-methylcyclopropyl)-amino)-2-oxoacetyl)-N-((R)-3-oxo-1-((S)-2-oxopyrrolidin-3-yl)-4-(trifluoromethoxy)butan-2-yl)octahydrocyclo-penta[c]pyrrole-1-carboxamide]: the EC50 was above 1 µM.
The same measure, in the same setting: under `CC(C)(F)c1cc(C(=O)N2C=C3C[C@@H]3[C@H]2C(=O)N[C@@H](C[C@@H]2CCNC2=O)C(=O)COC(F)(F)F)no1` [Compound 501, (1S,2S)-3-(5-(2-fluoropropan-2-yl)isoxazole-3-carbonyl)-N-((S)-3-oxo-1-((S)-2-oxopyrrolidin-3-yl)-4-(trifluoromethoxy)butan-2-yl)-3-azabicyclo[3.1.0]hex-4-ene-2-carboxamide] stands above 1 µM.

Staying with this assay, now noted: Severe acute respiratory syndrome coronavirus 2, HeLa-ACE2, 24 h, HeLa-ACE2 cells, SARS-CoV-2 infection, 24 h; read-out: EC50, uM (Hela).
Take `CC(C)(F)c1cc(C(=O)N2C[C@H]3[C@@H]([C@H]2C(=O)N[C@@H](C[C@@H]2CCNC2=O)C(=O)COC(F)(F)F)C3(C)C)no1` [Compound 478, (1R,2S,5S)-3-(5-(2-fluoropropan-2-yl)isoxazole-3-carbonyl)-6,6-dimethyl-N-((S)-3-oxo-1-((S)-2-oxopyrrolidin-3-yl)-4-(trifluoromethoxy)butan-2-yl)-3-azabicyclo[3.1.0]hexane-2-carboxamide]: the EC50 was below 0.05 µM.
As for `O=C(Nc1ccccc1F)C(=O)N1CC2(C[C@H]1C(=O)N[C@@H](C[C@@H]1CCNC1=O)C(=O)COC(F)(F)F)CC2(F)F` (stereo partly drawn) [Compound 482, (6S)-1,1-difluoro-5-(2-((2-fluorophenyl)amino)-2-oxoacetyl)-N-((S)-3-oxo-1-((S)-2-oxopyrrolidin-3-yl)-4-(trifluoromethoxy)butan-2-yl)-5-azaspiro[2.4]heptane-6-carboxamide], the EC50 is 0.05 to 0.2 µM.
For the compound `O=C1NCC[C@H]1C[C@H](NC(=O)[C@@H]1[C@H]2CCC[C@H]2CN1C(=O)c1cc(C(F)(F)F)on1)C(=O)COC(F)(F)F` [Compound 483, (1S,3aR,6aS)-N-((S)-3-oxo-1-((S)-2-oxopyrrolidin-3-yl)-4-(trifluoromethoxy)butan-2-yl)-2-(5-(trifluoromethyl)-isoxazole-3-carbonyl)octahydro-cyclopenta[c]pyrrole-l-carboxamide], the EC50 lay in the range of 0.05 to 0.2 µM.
As to `CC(F)(F)CNC(=O)C(=O)N1C[C@H]2[C@@H]([C@H]1C(=O)N[C@@H](C[C@@H]1CCNC1=O)C(=O)COC(F)(F)F)C2(C)C` [Compound 484, (1R,2S,5S)-3-(2-((2,2-difluoropropyl)amino)-2-oxoacetyl)-6,6-dimethyl-N-((S)-3-oxo-1-((S)-2-oxopyrrolidin-3-yl)-4-(trifluoromethoxy)butan-2-yl)-3-azabicyclo[3.1.0]-hexane-2-carboxamide], the EC50 is 0.05 to 0.2 µM.
On the same count and under the same terms, with `CC1(C)[C@@H]2[C@@H](C(=O)N[C@@H](C[C@@H]3CCNC3=O)C(=O)COC(F)(F)F)N(C(=O)C(=O)NC34CC(F)(C3)C4)C[C@@H]21` [Compound 486, (1R,2S,5S)-3-(2-((3-fluorobicyclo[1.1.1]-pentan-1-yl)amino)-2-oxoacetyl)-6,6-dimethyl-N-((S)-3-oxo-1-((S)-2-oxopyrrolidin-3-yl)-4-(trifluoromethoxy)butan-2-yl)-3-azabicyclo[3.1.0]-hexane-2-carboxamide] the figure was 0.05 to 0.2 µM.
Same read-out and setting: with `CC(C)(NC(=O)C(=O)N1C[C@H]2CCCC[C@H]2C[C@H]1C(=O)N[C@@H](C[C@@H]1CCNC1=O)C(=O)COC(F)(F)F)C(F)(F)F` [Compound 487, (3S,4aS,8aS)-N-((S)-3-oxo-1-((S)-2-oxopyrrolidin-3-yl)-4-(trifluoromethoxy)butan-2-yl)-2-(2-oxo-2-((1,1,1-trifluoro-2-methylpropan-2-yl)amino)acetyl)-decahydroiso-quinoline-3-carboxamide] the figure was 0.05 to 0.2 µM; with `CC1(C)[C@@H]2[C@@H](C(=O)N[C@@H](C[C@@H]3CCNC3=O)C(=O)COC(F)(F)F)N(C(=O)c3cc(C(F)(F)F)no3)C[C@@H]21` [Compound 488, (1R,2S,5S)-6,6-dimethyl-N-((S)-3-oxo-1-((S)-2-oxo-pyrrolidin-3-yl)-4-(trifluoromethoxy)butan-2-yl)-3-(3-(trifluoromethyl)-isoxazole-5-carbonyl)-3-azabicyclo[3.1.0]-hexane-2-carboxamide], 0.05 to 0.2 µM.
Regarding `CC1(C)[C@@H]2[C@@H](C(=O)N[C@@H](C[C@@H]3CCNC3=O)C(=O)COC(F)(F)F)N(C(=O)C(=O)Nc3ccccc3F)C[C@@H]21` [Compound 489, (1R,2S,5S)-3-(2-((2-fluorophenyl)amino)-2-oxoacetyl)-6,6-dimethyl-N-((S)-3-oxo-1-((S)-2-oxopyrrolidin-3-yl)-4-(trifluoromethoxy)butan-2-yl)-3-azabicyclo[3.1.0]-hexane-2-carboxamide], the EC50 was below 0.05 µM.
For the compound `CC(C)(F)c1cc(C(=O)N[C@@H](CC2CC2)C(=O)N[C@@H](C[C@@H]2CCNC2=O)C(=O)COC(F)(F)F)no1` [Compound 490, N-((S)-3-cyclopropyl-1-oxo-1-(((S)-3-oxo-1-((S)-2-oxopyrrolidin-3-yl)-4-(trifluoromethoxy)butan-2-yl)amino)propan-2-yl)-5-(2-fluoropropan-2-yl)isoxazole-3-carboxamide], the EC50 is below 0.05 µM.
On the same count and under the same terms, under `CC(C)(F)c1cc(C(=O)N2C[C@@H]3CCC[C@@H]3[C@H]2C(=O)N[C@@H](C[C@@H]2CCNC2=O)C(=O)COC(F)(F)F)no1` [Compound 491, (1S,3aR,6aS)-2-(5-(2-fluoropropan-2-yl)isoxazole-3-carbonyl)-N-((S)-3-oxo-1-((S)-2-oxopyrrolidin-3-yl)-4-(trifluoromethoxy)butan-2-yl)octahydrocyclo-penta[c]pyrrole-1-carboxamide] stands below 0.05 µM; under `CC1(C)[C@@H]2[C@@H](C(=O)N[C@H](C[C@@H]3CCNC3=O)C(=O)COC(F)(F)F)N(C(=O)c3cc(C(F)(F)F)no3)C[C@@H]21` [Compound 492, (1R,2S,5S)-6,6-dimethyl-N-((R)-3-oxo-1-((S)-2-oxopyrrolidin-3-yl)-4-(trifluoromethoxy)butan-2-yl)-3-(3-(trifluoromethyl)-isoxazole-5-carbonyl)-3-azabicyclo[3.1.0]-hexane-2-carboxamide], 0.05 to 0.2 µM.
On the same count and under the same terms, under `CC(C)(C)NC(=O)C(=O)N1C[C@@H]2C[C@@H]2[C@H]1C(=O)N[C@@H](C[C@@H]1CCNC1=O)C(=O)COC(F)(F)F` [Compound 493, (1S,2S,5R)-3-(2-(tert-butylamino)-2-oxoacetyl)-N-((S)-3-oxo-1-((S)-2-oxopyrrolidin-3-yl)-4-(trifluoromethoxy)butan-2-yl)-3-azabicyclo[3.1.0]-hexane-2-carboxamide] stands 0.2 to 0.5 µM; under `O=C(NC1CC1)C(=O)N1C[C@@H]2CCC[C@@H]2[C@H]1C(=O)N[C@@H](C[C@@H]1CCNC1=O)C(=O)COC(F)(F)F` [Compound 497, (1S,3aR,6aS)-2-(2-(cyclopropylamino)-2-oxoacetyl)-N-((S) -3-oxo-1-((S)-2-oxopyrrolidin-3-yl)-4-(trifluoromethoxy)butan-2-yl)octahydrocyclo-penta[c]pyrrole-1-carboxamide], 0.05 to 0.2 µM; under `CC(C)(C)NC(=O)C(=O)N1[C@H](C(=O)N[C@@H](C[C@@H]2CCNC2=O)C(=O)COC(F)(F)F)C[C@@H]2CCCC[C@@H]21` [Compound 498, (2S,3aS,7aS)-1-(2-(tert-butylamino)-2-oxoacetyl)-N-((S)-3-oxo-1-((S)-2-oxopyrrolidin-3-yl)-4-(trifluoromethoxy)butan-2-yl)octahydro-1H-indole-2-carboxamide], 0.05 to 0.2 µM.
In the case of `CC(C)(F)c1cc(C(=O)NC(CC2CCOCC2)C(=O)N[C@@H](C[C@@H]2CCNC2=O)C(=O)COC(F)(F)F)no1` (stereo partly drawn) [Compound 499, 5-(2-fluoropropan-2-yl)-N-(l-oxo-1-(((S)-3-oxo-1-((S)-2-oxopyrrolidin-3-yl)-4-(trifluoromethoxy)butan-2-yl)amino)-3-(tetrahydro-2H-pyran-4-yl)propan-2-yl)isoxazole-3-carboxamide], the EC50 was in the range of 0.05 to 0.2 µM.
For the compound `O=C1NCC[C@H]1C[C@H](NC(=O)[C@@H]1[C@H]2CCC[C@H]2CN1C(=O)c1cc(C(F)F)on1)C(=O)COC(F)(F)F` [Compound 500, (1S,3aR,6aS)-2-(5-(difluoromethyl)-isoxazole-3-carbonyl)-N-((S)-3-oxo-1-((S)-2-oxopyrrolidin-3-yl)-4-(trifluoromethoxy)butan-2-yl)octahydrocyclo-penta[c]pyrrole-1-carboxamide], the half-maximal effective concentration (EC50) was below 0.05 µM.
Take `CC(C)(C)NC(=O)C(=O)N1CC2(CC2)C[C@H]1C(=O)N[C@@H](C[C@@H]1CCNC1=O)C(=O)COC(F)(F)F` [Compound 502, (S)-5-(2-(tert-butylamino)-2-oxoacetyl)-N-((S)-3-oxo-1-((S)-2-oxopyrrolidin-3-yl)-4-(trifluoromethoxy)butan-2-yl)-5-azaspiro[2.4]-heptane-6-carboxamide]: the EC50 is below 0.05 µM.
On to `CC(C)(C)NC(=O)C(=O)N[C@@H](CC1CC1)C(=O)N[C@@H](C[C@@H]1CCNC1=O)C(=O)COC(F)(F)F` [Compound 503, N1-(tert-butyl)-N2-((S)-3-cyclopropyl-1-oxo-1-(((S)-3-oxo-1-((S)-2-oxopyrrolidin-3-yl)-4-(trifluoromethoxy)butan-2-yl)amino)propan-2-yl)oxalamide], for which the EC50 is below 0.05 µM.
For the compound `Cc1ccccc1NC(=O)C(=O)N[C@@H](CC(C)(C)C)C(=O)N[C@@H](C[C@@H]1CCNC1=O)C(=O)COC(F)(F)F` [Compound 504, N1-((S)-4,4-dimethyl-1-oxo-1-(((S)-3-oxo-1-((S)-2-oxopyrrolidin-3-yl)-4-(trifluoromethoxy)butan-2-yl)amino)pentan-2-yl)-N2-(o-tolyl)oxalamide], the EC50 was below 0.05 µM.
